Results as given in paper PMC5988656, “Phase I studies of AZD1208, a proviral integration Moloney virus kinase inhibitor in solid and haematological cancers” (British Journal of Cancer, 2018).

Tested on: patients with recurrent or refractory AML
Experiment: AML dose-escalation study: safety and tolerability (AEs, DLTs)
Format: in vivo, human
Source text: Conducted at three centres in the USA and one in Canada. Dose escalation followed a conventional 3 + 3 design. […] In the first cohort, dosing between the first and subsequent patients was staggered with a 7-day interval. Dose-escalation decisions were based on the safety and tolerability data from ≥3 evaluable patients (or six if one of the first three patients experienced a dose-limiting toxicity [DLT]).
AZD1208 could be escalated by up to 100% in subsequent cohorts until one DLT was observed, after which succeeding doses were escalated by up to 50%.
In the case of a DLT, the cohort was expanded to six patients. If a DLT occurred in ≥2 patients within a cohort, the dose was determined to be a non-tolerated dose (NTD) and dose escalation was stopped.
Grade 3 or 4 toxicities not attributable to the disease or disease-related processes under investigation, and occurring before the end of Cycle 1, were considered DLTs.
The NTD was identified as the dose at which ≥2 DLTs occurred in a given cohort.

## N[C@@H]1CCCN(c2c(/C=C3\SC(=O)NC3=O)cccc2-c2ccccc2)C1 [AZD1208]
120 mg, n = 4
  Abdominal pain (all-grade AE): 1 (25.0) n (%)
  Asthenia (all-grade AE): 1 (25.0) n (%)
  Chills (all-grade AE): 0 n (%)
  Cough (all-grade AE): 0 n (%)
  Decreased appetite (all-grade AE): 0 n (%)
  Dehydration (all-grade AE): 0 n (%)
  Diarrhoea (all-grade AE): 1 (25.0) n (%)
  Dyspnoea (all-grade AE): 0 n (%)
  Fatigue (all-grade AE): 1 (25.0) n (%)
  Febrile neutropenia (all-grade AE): 3 (75.0) n (%)
  Headache (all-grade AE): 0 n (%)
  Hyperglycaemia (all-grade AE): 0 n (%)
  Hypocalcaemia (all-grade AE): 1 (25.0) n (%)
  Hypokalaemia (all-grade AE): 0 n (%)
  Hypomagnesaemia (all-grade AE): 1 (25.0) n (%)
  Hypophosphataemia (all-grade AE): 1 (25.0) n (%)
  Hypotension (all-grade AE): 1 (25.0) n (%)
  Maculopapular rash (all-grade AE): 0 n (%)
  Nausea (all-grade AE): 3 (75.0) n (%)
  Oedema peripheral (all-grade AE): 1 (25.0) n (%)
  Patients with any AE (all-grade AE): 3 (75.0) n (%)
  Pneumonia (all-grade AE): 1 (25.0) n (%)
  Pyrexia (all-grade AE): 0 n (%)
  Rash (all-grade AE): 0 n (%)
  Renal failure acute (all-grade AE): 0 n (%)
  Stomatitis (all-grade AE): 1 (25.0) n (%)
  Vision blurred (all-grade AE): 1 (25.0) n (%)
  Vomiting (all-grade AE): 2 (50.0) n (%)
240 mg (bacteremia, peristomal ulcer)
  Patients in whom AZD1208 was discontinued as a result of SAEs and AEs: 1 n
240 mg, n = 6
  Abdominal pain (all-grade AE): 0 n (%)
  Asthenia (all-grade AE): 0 n (%)
  Chills (all-grade AE): 1 (16.7) n (%)
  Cough (all-grade AE): 1 (16.7) n (%)
  DLT detail, action taken: Peristomal ulcer, drug permanently discontinued
  Decreased appetite (all-grade AE): 1 (16.7) n (%)
  Dehydration (all-grade AE): 0 n (%)
  Diarrhoea (all-grade AE): 1 (16.7) n (%)
  Dyspnoea (all-grade AE): 1 (16.7) n (%)
  Fatigue (all-grade AE): 1 (16.7) n (%)
  Febrile neutropenia (all-grade AE): 2 (33.3) n (%)
  Headache (all-grade AE): 0 n (%)
  Hyperglycaemia (all-grade AE): 0 n (%)
  Hypocalcaemia (all-grade AE): 1 (16.7) n (%)
  Hypokalaemia (all-grade AE): 0 n (%)
  Hypomagnesaemia (all-grade AE): 1 (16.7) n (%)
  Hypophosphataemia (all-grade AE): 0 n (%)
  Hypotension (all-grade AE): 2 (33.3) n (%)
  Maculopapular rash (all-grade AE): 1 (16.7) n (%)
  Nausea (all-grade AE): 4 (66.7) n (%)
  Oedema peripheral (all-grade AE): 1 (16.7) n (%)
  Patients with any AE (all-grade AE): 6 (100.0) n (%)
  Pneumonia (all-grade AE): 3 (50.0) n (%)
  Pyrexia (all-grade AE): 0 n (%)
  Rash (all-grade AE): 0 n (%)
  Renal failure acute (all-grade AE): 1 (16.7) n (%)
  Stomatitis (all-grade AE): 1 (16.7) n (%)
  Vision blurred (all-grade AE): 0 n (%)
  Vomiting (all-grade AE): 3 (50.0) n (%)
480 mg (vomiting, gingival pain)
  Patients in whom AZD1208 was discontinued as a result of SAEs and AEs: 2 n
480 mg, n = 6
  Abdominal pain (all-grade AE): 1 (16.7) n (%)
  Asthenia (all-grade AE): 1 (16.7) n (%)
  Chills (all-grade AE): 0 n (%)
  Cough (all-grade AE): 1 (16.7) n (%)
  DLT detail, action taken: Fatigue, drug interrupted
  Decreased appetite (all-grade AE): 0 n (%)
  Dehydration (all-grade AE): 0 n (%)
  Diarrhoea (all-grade AE): 3 (50.0) n (%)
  Dyspnoea (all-grade AE): 2 (33.3) n (%)
  Fatigue (all-grade AE): 4 (66.7) n (%)
  Febrile neutropenia (all-grade AE): 0 n (%)
  Headache (all-grade AE): 3 (50.0) n (%)
  Hyperglycaemia (all-grade AE): 2 (33.3) n (%)
  Hypocalcaemia (all-grade AE): 1 (16.7) n (%)
  Hypokalaemia (all-grade AE): 3 (50.0) n (%)
  Hypomagnesaemia (all-grade AE): 2 (33.3) n (%)
  Hypophosphataemia (all-grade AE): 2 (33.3) n (%)
  Hypotension (all-grade AE): 2 (33.3) n (%)
  Maculopapular rash (all-grade AE): 0 n (%)
  Nausea (all-grade AE): 1 (16.7) n (%)
  Oedema peripheral (all-grade AE): 3 (50.0) n (%)
  Patients with any AE (all-grade AE): 6 (100.0) n (%)
  Pneumonia (all-grade AE): 2 (33.3) n (%)
  Pyrexia (all-grade AE): 1 (16.7) n (%)
  Rash (all-grade AE): 1 (16.7) n (%)
  Renal failure acute (all-grade AE): 2 (33.3) n (%)
  Stomatitis (all-grade AE): 3 (50.0) n (%)
  Vision blurred (all-grade AE): 3 (50.0) n (%)
  Vomiting (all-grade AE): 2 (33.3) n (%)
700 mg (lung infection, GBS, Escherichia spp. sepsis)
  Patients in whom AZD1208 was discontinued as a result of SAEs and AEs: 3 n
700 mg, n = 7
  Abdominal pain (all-grade AE): 3 (42.9) n (%)
  Asthenia (all-grade AE): 1 (14.3) n (%)
  Chills (all-grade AE): 1 (14.3) n (%)
  Cough (all-grade AE): 4 (57.1) n (%)
  DLT detail, action taken: GBS, drug permanently discontinued
  Decreased appetite (all-grade AE): 2 (28.6) n (%)
  Dehydration (all-grade AE): 0 n (%)
  Diarrhoea (all-grade AE): 5 (71.4) n (%)
  Dyspnoea (all-grade AE): 2 (28.6) n (%)
  Fatigue (all-grade AE): 2 (28.6) n (%)
  Febrile neutropenia (all-grade AE): 1 (14.3) n (%)
  Headache (all-grade AE): 1 (14.3) n (%)
